Patent publication US9974763B2, “Modulators of intracellular chloride concentration for treating neurodegenerative diseases with Parkinsonian Syndromes” (B & A THERAPEUTICS, priority 2013, dated 2018)
Like-named read-outs stand apart in the source and are kept apart here. One block for each compound: values may come before it.

Assays:
[1] = system: GABAA sPSCs in Medium Spiny Neurons (MSNs) of the striatum in Pink 1 knockout mice; assay: Whole-cell voltage-clamp recordings of spontaneous GABAA currents in basal ganglia slices before and during bath application of bumetanide; type: cell-based, mouse; conditions: for effect on the giant GABAergic pattern (in words): 10 μM; for area gigantic pattern (% of the total area) / giant GABAA sPSCs share of total current charge, Mean: before bumetanide 38±5%; for Giants Amplitude, Mean: P=0.01 vs before bumetanide
Experimental: Pink 1 knockout (Pink1 −/−) mouse is a genetic model of Parkinson's disease.
Pink1 −/− mutant mice of either sex at age 5-7 months were intracardially perfused with the choline solution (see below) at 4° C. and sacrificed by decapitation under halothane anesthesia. Oblique parasagittal slices (380 μm thick) were cut with an angle of 10±2° to obtain the basal ganglia slice (BGS) as described in (Beurrier et al., 2006). For the slicing procedure, the ice-cold oxygenated solution contained (in mM) 110 choline, 2.5 KCl, 1.25 NaH2PO4, 7 MgCl2, 0.5 CaCl2, 25 NaHCO3, 7 glucose. During the recovery period, BGS were placed at room temperature with standard artificial cerebrospinal fluid (ACSF) saturated with 95% O2 5% CO2 and containing (in mM): 126 NaCl, 3.5 KCl, 1.2 NaH2PO4, 1.3 MgCl2, 2 CaCl2, 25 NaHCO3, 11 glucose.
All recordings were made at 32° C. Cells were visualized with infrared-differential interference optics (Axioskop2, Zeiss). For whole-cell voltage-clamp recordings of postsynaptic GABAA currents, the pipette (6-10 MΩ) contained (in mM): 128.5 K-gluconate, 11.5 KCl, 1 CaCl2, 10 EGTA, 10 HEPES, 2.5 MgATP and 0.3 NaGTP, pH 7.32, 280 mOsm. The KGlu pipette solutions gave a reversal potential for chloride close to −63 mV at 35° C. Biocytin (Sigma, 5 mg/ml) was added to the pipette solution and osmolarity corrected when necessary. We performed patch-clamp recordings in whole cell configuration using the Digidata 1344A interface, the Multiclamp 700A amplifier and PClamp8 software (Axon Instruments, Foster City, Calif.). We identified medium spiny neurons (MSNs) during recordings based on their typical rectification during hyperpolarizing steps and their firing delay in response to depolarizing steps. MSNs were also identified by their morphological characteristics after the recording session (see immunocytochemistry). We measured spontaneous GABAA currents (GABAA sPSCs) from MSNs in voltage clamp mode at the reversal potential for glutamatergic (+10 mV) events (Cossart et al., 2000). These currents were stored on Pclamp8 (Axon Instruments, Foster City, Calif., USA) and analyzed off-line with Mini Analysis program (Synaptosoft 6.0, CA, USA), Clampfit 9.2, Origin 5.0 and Autosignal 1.7 to determine the frequency and amplitude of GABAA sPSCs. All detected currents were then visually inspected to reject artefactual events.
We defined as a burst a minimum of five sPSCs associated with a baseline elevation. More than five giant events and three bursts were required during the three min analysis for the pattern to be deemed “oscillatory”. The current charge was automatically calculated by the Mini Analysis Software as the area under the curve value (taking the onset, peak and decay time points as references for each event).
GABAA sPSCs were recorded from identified MSNs before and during bath application of Bumetanide.
For statistical comparison of data we performed paired t-tests. Error bars indicate SEM. ***P<0.001; ns (non-significant).

[2] = system: patient suffering from Parkinson's disease; conditions: for UPDRS motor severity score (III) in the OFF stage: after 2 months of bumetanide, last four weeks at 5 mg/d; for UPDRS II OFF (activities of daily leaving, worst condition) score: at the end of the study
Text: A person, suffering from a 10-year history of Parkinson's disease was included in an open-labeled trial assessing the antiparkinsonian effects of bumetanide. They gave their informed consent to participate. The patient fulfilled the modified Queen's Square Brain Bank criteria of Parkinson's disease (Berardelli et al., 2013). […] Parkinson's disease was at the stage of motor fluctuation and dyskinesia. The OFF periods (bad mobility) lasted for an average of 25-50% of the awakened time. Dyskinesia was mild and intermittent. There was no marked balance impairment or cognitive decline. Antiparkinsonian treatment consisted in: L-DOPA 1,200 mg/d (7 intakes/d), ropinirole 4 mg/d, rasagiline 1 mg/d, tolcapone 300 mg/d. They also received mianserine, citalopram and alprazolam for concomitant anxiety and depression. Bumetanide was progressively titrated up to 3 mg/d (once daily) received for a month. […] The patient was assessed before, 1 month and 2 months after the initiation of bumetanide. At each visit, the patient was asked about any side effects having occurred since the last visit. […] The antiparkinsonian treatment was unchanged during the study. A person, having a 8-year history of Parkinson's disease was included in an open-labeled trial assessing the antiparkinsonian effects of bumetanide. The OFF periods (bad mobility) lasted for an average of 25-50% of the awakened time. Antiparkinsonian treatment consisted in: L-DOPA 625 mg/day (5 intakes/day), entacapone 1,000 mg/day, ropinirole 12 mg/day. Bumetanide: was progressively titrated up to 3 mg/day (once daily) received for a month. […] The patients were assessed before, 1 month and 2 months after the initiation of bumetanide. At each visit, the patient was asked about any side effects having occurred since the last visit. […] The antiparkinsonian treatment was unchanged during the study.

[3] = system: GABAA sPSCs in Medium Spiny Neurons (MSNs) of the striatum in Pink 1 knockout mice; conditions: Dehorter et al 2012; cited from earlier work
[4] = bumetanide 10 μM, 15-30 min, Pink1 KO MSNs
[5] = bumetanide 10 μM, 15-30 min, Pink1 KO MSNs, listed as Bume
[6] = bumetanide 10 μM, 15-30 min, n=42 events
[7] = bumetanide 10 μM, 15-30 min, three min analysis

- dyskinesia ([2]; human, in vivo): no worsening
SMILES: CCCCNc1cc(C(=O)O)cc(S(N)(=O)=O)c1Oc1ccccc1 [Bumetanide, bumetanide]
- effect on the giant GABAergic pattern (in words) ([1]; 15-30 min, Pink1 KO MSNs): blocked the giant pattern
- effect on the giant GABAergic pattern (in words) ([1]; 15-30 min, Pink1 KO MSNs, listed as bumetanide): block these gigantic currents completely
- time of treatment after which the effect was stable ([1]; bath application, final concentration 10 μM): 15 min
- TOTAL AREA, Mean ([1]; bumetanide 10 μM bath, 15-30 min, Pink1 KO MSNs with giant pattern, VH=+10 mV): 290 pA · ms
- Pink1 KO MSNs showing giant GABAA PSCs in which the block was observed ([1]; bumetanide 10 μM, 15-30 min): 10/10
- effect on bursts of GABAA sPSCs (in words) ([1]; bumetanide 10 μM, 15-30 min): totally disappeared
- mean frequency of single giant GABAA sPSCs ([1]; bumetanide 10 μM, 15-30 min, P=0.02 vs before bumetanide): 0.10±0.05 Hz
- Tonic pattern: Amplitude of GABAA PSCs, Mean [1, 4]: 36±4 pA
- Tonic pattern: Frequency of GABAA PSCs, Mean [1, 4]: 2.9±0.5 Hz
- mean total current charge ([1]; bumetanide 10 μM, 15-30 min, Pink1 KO MSNs, before bumetanide 566±74): 290±70 nA·ms
- Tonic pattern: Amplitude of GABAA PSCs, Mean [1, 5]: 36.0 pA
- Tonic pattern: Frequency of GABAA PSCs, Mean [1, 5]: 2.9 Hz
- basal events between giants, share of the total current charge ([1]; bumetanide 10 μM, 15-30 min, before 62±5%, P=0.0003): 90±3%
- area gigantic pattern (% of the total area) / giant GABAA sPSCs share of total current charge, Mean ([1]; bumetanide 10 μM, 15-30 min, P=0.0003): 11.7±3.9%
- area gigantic pattern (% of the total area) / giant GABAA sPSCs share of total current charge, Mean ([1]; bumetanide 10 μM, 15-30 min, P=0.0003, listed as Bume): 11.7%
- range of amplitude of single giant GABAA sPSCs [1, 6]: 203-593 pA
- Giants Amplitude, Mean [1, 6]: 338.2±22.5 pA
- Giants Amplitude, Mean ([1]; bumetanide 10 μM, 15-30 min, n=42 events, listed as Bume): 338.2 pA
- Giants Frequency, Mean ([1]; bumetanide 10 μM, 15-30 min, table value, unit not given): 0.10
- n bursts, Mean [1, 7]: 0.2
- n giants (>200 pA), Mean [1, 7]: 5.6
- decrease of the mean total current charge ([1]; bumetanide 10 μM, 15-30 min vs before bumetanide, P=0.0002): 49%
- number of individual giant GABAA sPSCs still present during the three-minutes sequence analyzed ([1]; bumetanide 10 μM, versus 237 before bumetanide): 42 events
- overall improvement evaluated by the patient and the caregiver ([2]; patient 1): about 30%
- improvement (decrease) of UPDRS motor (III) score in the OFF stage ([2]; patient 1, 2 months vs before treatment): 34%
- UPDRS motor severity score (III) in the OFF stage ([2]; patient 1, 44 before treatment): 29
- motor condition / Parkinsonism as noticed by the patient and their caregiver ([2]; patient 1, after 2 weeks at 5 mg/d): marked improvement
- OFF time duration ([2]; patient 1, after 2 weeks at 5 mg/d, baseline 25-50%): less than 25 % of the awakened time
- UPDRS II OFF (activities of daily leaving, worst condition) score ([2]; patient 1, 30 at baseline): 18
- improvement (decrease) of UPDRS II in the worst condition ([2]; patient 1, end of study vs baseline): 40%
- UPDRS II in the best condition ([2]; patient 1, score 0): unchanged
- improvement of UPDRS motor severity score (III) in the OFF stage ([2]; patient 2, 2 months vs before treatment): 56%
- UPDRS II in the best condition ([2]; patient 2, 2 vs 3): unchanged
- UPDRS motor severity score (III) in the OFF stage ([2]; patient 2, 25 before treatment): 11
- UPDRS II OFF (activities of daily leaving, worst condition) score ([2]; patient 2, 15 at baseline): 10
- improvement of UPDRS II in the worst condition ([2]; patient 2, end of study vs baseline): 33%

SMILES: N[C@@H](Cc1ccc(O)c(O)c1)C(=O)O [L Dopa]
- effect on the gigantic current pattern (in words) [3]: alleviate this pattern
